According to ChEMBL document CHEMBL1150733, “(+)-Curcuphenol and (+)-Curcudiol, Sesquiterpene Phenols from Shallow and Deep Water Collections of the Marine Sponge Didiscus flavus” (J Nat Prod, 1987):
≈ marks a conversion by molar mass, not a printed value.

Key:
Candida albicans = assay: Antifungal activity against Candida albicans; format: functional
P388 = assay: Cytotoxicity against mouse P388 cells; format: functional, cell-based
A549 = assay: Cytotoxicity against human A549 cells; format: functional
HCT-8 = assay: Cytotoxicity against human HCT8 cells; format: functional
[1] = Cytotoxicity against human MDA-MB cells; format: functional

Row | MIC (Candida albicans) [µg/mL] | Compound | IC50 (P388) [µg/mL] | MIC (A549) [µg/mL] | MIC (HCT-8) [µg/mL] | MIC [1] [µg/mL]
1 | 250 (≈ 1060 µM) | Cc1ccc([C@@H](C)CCCC(C)(C)O)c(O)c1 |  |  |  | 
2 | 8 (≈ 36.6 µM) | CC(C)=CCC[C@H](C)c1ccc(C)cc1O | 7 (≈ 32.1 µM) | 10 (≈ 45.8 µM) | 0.1 (≈ 0.458 µM) | 0.1 (≈ 0.458 µM)
